Values of other authors in US20240100019A1, “COMPOSITIONS COMPRISING A THERMOREVERSIBLE HYDROGEL, AND HAVING AN EXTENDED IN-USE PERIOD” (UroGen Pharma Ltd., priority 2022, published 2024).
Read-outs that look alike come from different tables or passages of the source.

Columns and labels:
[1] = room temperature; pH 4.5, 5.5, 6.0 and 7.0 solutions

CO[C@@]12[C@H](COC(N)=O)C3=C(C(=O)C(C)=C(N)C3=O)N1C[C@@H]1N[C@@H]12 [mitomycin C]
time for which MMC was stable (relative concentrations systematically over 90% of the initial concentrations) (0.2 mg/ml in 0.9% sodium chloride solution): 10 h
relative MMC concentration as compared to initial concentration (after 96 h, these solutions): below 80%
time for which MMC was stable (relative concentrations systematically over 90% of the initial concentrations) (in water for injections at a concentration of 1 mg/mL): 8 h
degradation products observed (reconstituted and diluted solutions): below 3%
time at which MMC was unstable (less than 90% of the initial value) [1]: < 24 h
